The test system of series [1] is phospholipase A2. The series can be described thus: stimulation of phospholipase A2 activity in vitro. As to conditions: in vitro (unpublished results). Format: biochemical. The text has this: As used herein phospholipase A2 activating agents, PLAA, are defined as agents which induce phospholipase A2 activity. A variety of procedures are known in the art for assaying an agent for PLAA activity. These include, but are not limited to, assaying cultured endothelial cells or smooth muscle cells for the release of arachidonic acid in the presence of the agent as well as cell free systems which utilize 1-palmitoyl-2-[14C]arachidonyl-sn-glycero-3-phospho-[methy13H]choline to assay for PLA2 activity (see Clark et al., J. Biol. Chem. 261:10713-10718 (1986) and Clark et al., Biochem. J. 250:125-132 (1988).

Series [2] concerns C6 glioma cells. The series can be described thus: rat air pouch glioma model: tumor thickness, weight and necrosis. Format: in vivo. How it is done:
C6 glioma cells (10^7) were injected into rats and allowed to grow for two weeks. The average thickness of the tumors was approximately 7±2 mm in thickness. The animals were then treated with 500 μg of either agarose complexed PLAP peptide SEQ ID NO. 1 or agarose complexed PLAP-like peptide in which the two adjacent prolines were deleted. After three days of treatment, the animals were given a second injection of the peptide and the tumors were measured on day 6 of the treatment regimen.
C6 glioma cells (10^7) were injected into rats and allowed to grow for two weeks as in FIG. 1. By day 14, the tumors were approximately 7 mm in thickness. The animals were then given the indicated concentrations of the agarose complexed PLAP peptide. The thickness of the tumor was monitored after three days of treatment and the values are shown as a percentage of reduction in the tumor cell mass.
Sprague-Dawley rats were injected with 10^6 C-6 glioma cells. The tumors were allowed to grow for 14 days prior to injection of 500 μg of agarose complexed PLAP peptide. Tumor thickness was measured after 3 and 6 days of treatment.
G6 glioma cells, derived from a glioma induced in the Wistar strain of rat and obtained from the American Type Culture Collection (ATCC) were maintained in tissue culture. The cell cultures were grown to confluence in 75 cm^2 tissue culture flasks, detached from the flasks by addition of trypsin/EDTA, washed twice in fresh culture medium, and resuspended at a final concentration of 2×10^6 cells per ml.
Air pouches were formed in female Sprague-Dawley rats (average age 6-8 weeks; average weight 180 grams). Briefly, 20 cc's of sterile air was injected into the subcutaneous tissues on the dorsum of the animal to form an air filled pouch. Inflation of the pouches was maintained by re-injection of sterile air every other day. Pouches were ready for use on day 7.
Suspension of cultured glioma cells (1×10^6 -1×10^7 cells) were injected into the air pouches. By day 14, the tumors typically were of sufficient size to be used as described below.
Animals were injected with 500 μgrams of PLAP peptide bound to agarose beads. A similar number of rats were injected with unmodified agarose beads as a control. In order to ensure uniform distribution of the bound peptide, the total volumes injected were increased to 5 ml by the addition of sterile saline immediately prior to injection. Since tumor growth was characterized by formation of large effusions containing high levels of eicosanoids, the tumors were aspirated immediately prior to injection of PLAP peptide or agarose beads alone.
Seventy-two hours after injection, the animals were euthanized by using CO2 gas. The tumor effusions were aspirated and the tumor cell numbers were determined using a Coulter counter. The samples were frozen and stored at -80° for later eicosanoid assay. The tumor masses were removed through an incision made in the dorsum of the animal and weighed. […]
To determine the effect of concentration of PLAP peptide on tumor cell number and tumor size, Sprague-Dawley rats were injected with 10^6 C-6 glioma cells as described above, and were then treated with either 0, 0.25, 0.5, or 1 mg/rat PLAP. Three days after treatment, the maximum thickness of the tumors was measured.
To determine the length of the effectiveness of administering PLAP peptide, Sprague-Dawley rats were injected with 10^6 C-6 glioma cells as described above. […] Tumor thickness was measured 3 and 6 days after treatment.

Series [3] concerns eicosanoids in exudates obtained from tumors. Description: measurement of eicosanoids in tumor exudates. It is filed as in vivo, rat. The conditions noted are these: 72 hours after injection. The method, then:
Seventy-two hours after injection, the animals were euthanized by using CO2 gas. The tumor effusions were aspirated and the tumor cell numbers were determined using a Coulter counter. The samples were frozen and stored at -80° for later eicosanoid assay. The tumor masses were removed through an incision made in the dorsum of the animal and weighed. Samples of tumor tissues were stored in formalin for routine histology or snap-frozen in liquid N2 for immunocytochemistry.
Eicosanoid levels in exudates obtained from tumors were determined using enzyme-lined immunoassay kits purchased from Cayman Chemical Company (Ann Arbor, Mich.) and used as recommended by the supplier. Calculations of the amounts of eicosanoids were made using EPA software purchased from the same company.

For series [4], the system named is mononuclear cells. Description: immunocytochemical analysis of tumors (mononuclear cell infiltrate). It is filed as in vivo, rat. As to conditions: frozen sections of tumor tissues reacted with MAbs. The text has this:
Snap-frozen tissue samples were sectioned on a cryotome, fixed in acetone, blocked with levamisole, and then reacted with monoclonal antibodies to cell surface determinants expressed by mononuclear cells. After washing, tissue sections were reacted with biotin-labelled rat anti-mouse IgG monoclonal antibodies, alkaline phosphate-labelled avidin-biotin complex (ABC, Vecta, Burlinghame, Calif.) and color developed by the addition of appropriate substrate. Sections were then mounted in Permount (Fisher Scientific) and read in an Olympus light microscope.
To determine whether PLAP-induced tumor necrosis was associated with specific cellular events, frozen sections of tumor tissues were reacted with MAbs directed at subpopulations of mononuclear cells. […] Thus, PLAP-induced tumor necrosis appears to be mediated through enhanced NK/LAK cell activation.

The test system of series [5] is MTVL murine mammary tumor cells. The series can be described thus: survival of mice injected with mammary tumor cells. Format: in vivo, Balb C mice. The conditions noted are these: 200 μg agarose bound peptide 1 and 4 days after tumor cells; vs agarose beads alone; p<0.001 (FIG. 4). The method, then:
Balb C mice were injected with 10^6 MTVL murine mammary tumor cells. The mice were treated with 200 μg of agarose complexed PLAP peptide 1 and 4 days after injection of the tumor cells. The animals were checked daily for survival. The results obtained are the average for twenty animals in each group. Animals that received no treatment (.smallcircle.),animals that received PLAP ( ) p<0.001.
The effectiveness of stimulating tumor necrosis for tumors other than gliomas was tested. To test effectiveness of the present methods in treating neoplastic mammary cells, Balb C mice were injected with 10^6 MTVL murine mammary tumor cells as described above for the glioma cells. The mice were treated with 200 μg of agarose bound PLAP peptide 1 and 4 days after injection of the tumor cells. The animals were checked daily for survival. FIG. 4 provides the average of the results obtained for twenty animals in each group.

The subject of series [6] is LL-2 murine lung tumor cells. The series can be described thus: survival of mice injected with lung tumor cells. It is filed as in vivo, C57 Bl/6 mice. As to conditions: 200 μg agarose bound peptide 1 and 4 days after tumor cells; vs agarose beads alone; p<0.0001 (FIG. 5). How it is done:
C57 Bl/6 mice were injected with 10^6 LL-2 murine lung tumor cells. The mice were treated with 200 μg of agarose complexed PLAP peptide 1 and 4 days after injection of the tumor cells. The animals were checked daily for survival. The result obtained are the average for twenty animals in each group. Animals that received no treatment (.smallcircle.), animals that received PLAP ( ) p<0.0001.
To test the effectiveness of the present methods in treating neoplastic lung cells, C57 Bl/6 mice were injected with 10^6 LL-2 murine lung tumor cells as described above for the glioma cells. The mice were treated with 200 μg of agarose bound PLAP peptide 1 and 4 days after injection of the tumor cells. The animals were checked daily for survival. FIG. 5 provides the average of the result obtained for twenty animals in each group were used.

Series [7] concerns PLA2. As to conditions: Salari et al., Mol. Pharm. 28:546 (1985), cited from earlier work.
Series [8] relates to neutrophil. As to conditions: Bomalaski et al., J. Immuno. (1989); cited from earlier work.

Where two headings read alike, the source gives them in different places.

With “GLU-SER-PRO-LEU-ILE-ALA-LYS-VAL-LEU-THR-THR-GLU-PRO -PRO-ILE-ILE-THR-PRO-VAL-ARG-ARG-(THR-LEU) [PLAP peptide]”, the “stimulation of phospholipase A2 activity in vitro” value in series [1] is “stimulated phospholipase A2 activity”. Further, in series [2] (rats, 0, 0.25, 0.5 or 1 mg/rat, maximum tumor thickness three days after treatment (FIG. 2)), the “reduction in tumor size as a function of amount administered” value is recorded as “concentration dependent”. The “duration of tumor necrosis” value in series [2] (rats, 500 μg agarose bound peptide, tumor thickness 3 and 6 days after treatment (FIG. 3)) is listed as “observed to continue even at 6 days”. Besides, the “tumor regression / size of the tumor” value in series [2] (rats, 500 μg agarose complexed peptide, second injection after three days, tumors measured on day 6 (FIG. 1)) was “profound effect on the size of the tumor”. Further, in series [2] (rats, 500 μg peptide bound to agarose beads, 72 hours), the “tumor weight compared with control animals” value is reported as “reduction in tumor weight”. Further, the tumor necrosis entry in series [2] (rats, 500 μg peptide bound to agarose beads, tumor tissues examined after 72 hours) is “caused significant necrosis”. In series [3], the “amount of LTC4 in exudates from tumors compared with those injected with agarose beads” value was “No changes”, the “amount of PGE2 in treated tumors compared with tumors injected with agarose beads” value is 50 fold, the “amount of PGI2 in exudates from tumors compared with those injected with agarose beads” value is listed as “No changes” and the “amount of leukotriene B4 (LTB4) in treated tumors compared with tumors injected with agarose beads” value is listed as 20 fold. In series [4], the “OXI (cytotoxic T lymphocyte) and NRK-1 positive (NK) cells in the infiltrate” value is recorded as “high numbers”; the “mononuclear cell infiltrate in tumor tissues” value is given as “stimulated mononuclear cell infiltrate”. Further, the “survival of mice injected with mammary tumor cells” value in series [5] is given as “increased the survival”. Also, the “survival of mice injected with lung tumor cells” value in series [6] is reported as “increased the survival”.
Take `CC[C@H](C)[C@H](NC(=O)CN)C(=O)NCC(=O)N[C@@H](C)C(=O)N[C@H](C(=O)N[C@@H](CC(C)C)C(=O)N[C@@H](CCCCN)C(=O)N[C@H](C(=O)N[C@@H](CC(C)C)C(=O)N[C@H](C(=O)N[C@H](C(=O)NCC(=O)N[C@@H](CC(C)C)C(=O)N1CCC[C@H]1C(=O)N[C@@H](C)C(=O)N[C@@H](CC(C)C)C(=O)N[C@H](C(=O)N[C@@H](CO)C(=O)N[C@@H](Cc1c[nH]c2ccccc12)C(=O)N[C@H](C(=O)N[C@@H](CCCCN)C(=O)N[C@@H](CCCNC(=N)N)C(=O)N[C@@H](CCCCN)C(=O)N[C@@H](CCCNC(=N)N)C(=O)N[C@@H](CCC(N)=O)C(=O)N[C@@H](CCC(N)=O)C(N)=O)[C@@H](C)CC)[C@@H](C)CC)[C@@H](C)O)[C@@H](C)O)C(C)C)C(C)C` [melittin]: the “stimulation of PLA2 activity” value in series [7] is “shown to stimulate PLA2 activity”; in series [7] (listed as Melittin), “has phospholipase activating activity”.
For the molecule TNF-alpha, the “stimulation of PLA2 activity” value in series [7] is on record as “shown to stimulate PLA2 activity”.

B1: PLAP: mouse phospholipase A2 activating protein, molecular mass approximately 28,000 (protein, UniProt P27612 1-794, looked up)
Phospholipase A-2-activating …: MASGASRYRLSCSLPGHELDVRGLVCCLYPPGAFVSVSRDRTTRLWAPDSPNRGFTEMHCMSGHSNFVSCVCIIPSSDIYPHGLIATGGNDHNICIFSLDSPMPLYILKGHKDTVCSLSSGKFGTLLSGSWDTTAKVWLNDKCMMTLQGHTAAVWAVKILPEQGLMLTGSADKTIKLWKAGRCERTFLGHEDCVRGLAILSETEFLSCANDASIRRWQITGECLEVYFGHTNYIYSISVFPNSKDFVTTAEDRSLRIWKHGECAQTIRLPAQSIWCCCVLENGDIVVGASDGIIRVFTESEERTASAEEIKAFERELSQATIDSKTGDLGDINAEQLPGREHLSEPGTREGQTRLIRDGERVEAYQWSVSDGRWIKIGDVVGSSGANQQTSGKVLYEGKEFDYVFSIDVNEGGPSYKLPYNVSDDPWLVAYNFLQKNDLNPMFLDQVAKFIIDNTKGQTLGLGNTSFSDPFTGGGRYVPGTSGPSNTVQTADPFTGAGRYMPGSAGMDTTMTGVDPFTGNSAYRSAASKTVNIYFPKKEALTFDQANPTQILGKLKELNGTAPEEKKLTEDDLVLLEKILSLICNNSSEKPTAQQLQILWKAINWPEDIVFPALDILRLSIKHPNVNENFCNEKGDQFSSHLINLLNPKGKPANQLLALRTFCNCFVSQAGQKLMMSQRESLMSHAIELKSGSNKNIHIALATLTLNYSVCFHKDHNIEGKAQCLSVISTILEVVQDLEATFRLLVALGTLISDDSNAIQLAKSLGVDSQIKKYVSVSEPAKVSECCRLVLHLL
On to B1, for which, in series [8], the neutrophil aggregation entry was “stimulates neutrophil aggregation” and the neutrophil chemokinesis entry is recorded as “stimulates”.

The values above are taken from patent US5527775A, “Reduction of mammalian neoplasms with phospholipase A2 activating substances” (Enzon, Inc., priority 1994, dated 1996).
